Measurements from patent US20120122791A1, “SUBSTRATE FOR CARTILAGE CULTIVATION USING ARTIFICIAL COLLAGEN, AND METHOD FOR CARTILAGE REGENERATION TREATMENT USING THE SUBSTRATE” (JNC CORPORATION, priority 2009, published 2012).

Assays:
cartilage defect model = assay: Cartilage regeneration by intraarticular administration in cartilage defect model (modified ICRS score, Safranin-0 staining, type 2 collagen immunostaining); assay type: in vivo, New Zealand white domestic rabbits; conditions: for macroscopic observation of knee joints: collected Week 7; for Safranin-0-stained area ratio compared to control group / Safranin-0 stained area compared to control group / type 2 collagen antibody-immunostained area compared to control group / type 2 collagen antibody-immunostained area ratio compared to control group: intraarticular
Experimental: A cartilage defect with a diameter of 5 mm was made on the patellofemoral joint of each of 18 knees of 9 New Zealand white domestic rabbits (22 week-old, 3.4 to 3.8 kg) after anesthesia, and further, a wound was sutured to prepare a cartilage defect model (Week 0). The 18 knees were divided into 3 groups, and on Week 1, Week 3, and Week 5, physiological saline was administered for a control group, and an intraarticular injection (0.1 ml/kg) was performed for an artificial collagen aqueous solution administration group. After that, knee joints were collected on Week 7. The ICRS score in Table 4 below is an evaluation method generally used when cartilage grafting to a cartilage defect is performed. The inventors of the present invention adopted, as an evaluation method in the case of administering a medicament without performing cartilage grafting, a modified ICRS score, which is an evaluation method involving using two items of “Degree of defect repair” and “Macroscopic appearance” and performing evaluation with a total score of 0 to 8. […] As recognized from the result of modified ICRS score described in FIG. 12, cartilage regeneration could be achieved by the intraarticular administration of the artificial collagen aqueous solution as the substrate for cartilage cultivation of the present invention. It should be noted that the results with a modified ICRS score are expressed as an average of scores of 6 knees for the control group, an average of 6 knees for the 0.1% (W/V) group, and an average of 6 knees for the 0.5% (W/V) group. In addition, a Mann-Whitney U test was used for statistics. […] The stained areas of the 0.1% (W/V) artificial collagen administration group and the 0.5% (W/V) artificial collagen administration group were larger compared to the stained area of the control group. In particular, a proteoglycan was present in a large amount. In addition, the stained area ratios of the 0.1% (W/V) artificial collagen administration group and the 0.5% (W/V) artificial collagen administration group were larger compared to the stained area ratio of the control group. […] The stained areas of the 0.1% (W/V) artificial collagen administration group and the 0.5% (W/V) artificial collagen administration group were larger compared to the stained area of the control group. In addition, the stained area ratios of the 0.1% (W/V) artificial collagen administration group and the 0.5% (W/V) artificial collagen administration group were larger compared to the stained area ratio of the control group.

type 2 collagen mRNA = assay: Type 2 collagen mRNA amount in cartilage cells by addition of artificial collagen aqueous solution (real-time PCR); assay type: cell-based, New Zealand white rabbits; conditions: relative to 0% defined as 1
Experimental: (§1) Shoulder joints and knee joints were extirpated from 5 New Zealand white rabbits (male, 8- to 9 week-old), and only a cartilage layer was excised and sampled with a surgical knife. After washing with a sterilized PBS solution, pronase was added to 25 ml of Dulbecco's Modified Eagle's medium+gentacin (25 μg/ml) at a concentration of 0.4% (W/V), and incubation was performed at 37° C. for 2 hours. The solution was supplemented with collagenase at a concentration of 0.025% (W/V), and incubated at 37° C. overnight. The resulting solution was washed to collect cartilage cells. After that, the cartilage cells were seeded into a dish with a diameter of 90 mm at 1 to 2×10^6 cells/dish, and a medium exchange was performed once every 3 days. At the time point where the cells became confluent, subcultivation was performed only once. The following experiments were performed by using cells which had been subcultivated once. Further, the composition of a cultivation medium is as described below.
(§2) Cartilage cells in a semi-confluent state were detached from a dish by a tripsin-EDTA solution treatment, supplemented with a cultivation medium, and then washed by centrifugation. After that, the cells were seeded into a 12-well plate at 3×10^5 cells/well, and cultivation was started under conditions of 37° C. and 5% CO2.
(§3) At 24 hours after the start of the cultivation, a 1% (W/V) artificial collagen aqueous solution was diluted with a cultivation medium to prepare 0.10, 0.20, 0.30, 0.40, and 0.50% (W/V) artificial collagen aqueous solutions. Then, cultivation was performed for 4, 7, 14, and 21 days. It should be noted that a 0% (W/V) artificial collagen aqueous solution was used as a control.
(§4) After the completion of the above-mentioned cultivation, the cartilage cells were collected, and RNA extraction was performed by using RNeasy (registered trademark) Mini Kit (QIAGEN). A reverse transcription reaction was performed by using QuantiTect (registered trademark) Reverse Transcription Kit (QIAGEN). To be more specific, Real-time PCR was performed by the following method.
(§5) The model used for Real-time PCR was ABI PRISM 7000 (Applied Biosystems), and the reagents used were Real-time PCR Master Mix (TOYOBO) and Pre-Developed TaqMan & reg; Assay Reagents Eukaryotic 18S rRNA (Applied Biosystems), TaqMan & reg; Probe kit (Applied Biosystems).
(§6) At 50° C. for 2 minutes, at 95° C. for 10 minutes (at 95° C. for 15 seconds, at 60° C. for 1 minute)×40 cycles.

cartilage cells = assay: Proteoglycan production ability of cartilage cells (Na2 35SO4 incorporation) by addition of artificial collagen aqueous solution; assay type: cell-based, New Zealand white rabbits; conditions: 7 days, vs 0% control
Experimental: as §1
as §2, with “and” for “and then”, “6-well” for “12-well”, “1.5×10^6 cells/well” for “3×10^5 cells/well,”, “cultivated” for “cultivation was started”
At 24 hours after the start of the cultivation, a 1% (W/V) artificial collagen aqueous solution was diluted with a cultivation medium to prepare 0.10, 0.20, 0.30, 0.40, and 0.50% (W/V) artificial collagen aqueous solutions. The artificial collagen aqueous solutions were allowed to act on the cells for an additional 7 days, and further supplemented with 10 μCi/ml Na2^35SO4 to perform cultivation for the last 24 hours. A medium exchange was performed once every 3 days. It should be noted that a 0% (W/V) artificial collagen aqueous solution was used as a control.
After the completion of the above-mentioned cultivation, the cells were washed with a fresh cultivation medium, and a lysis buffer (4 M GuHCl, 0.05 M NaAC, pH 6.0) supplemented with protease inhibitors (0.1 M 6-aminohexanoic acid, 0.005 M benzamidine hydrochloride, 0.01 M Nae EDTA, 0.01 M N-ethylmaleimide, and 0.001 M phenylmethyl sulfonyl fluoride) was added into each well. The cells were extracted at 4° C. for 4 hours, and centrifuged at 15000 rpm at 4° C. for 20 minutes.
The cells were eluted with an elution buffer (4 M GuHCl, 0.05 M Na acetate, 0.1 M Na sulfate, and 0.5% Triton X-10 (pH 7.5)) by using a PD-10 pre-packed column (GE Healthcare Bio-Sciences Ltd.) to fractionate samples. To each of the fractionated samples, ethanol and a scintillator were added and mixed, and the radioactivity content (cpm) was measured with a liquid scintillation counter. Further, the DNA amount of each of the samples used in this case was measured with a Hoechst 33258 dye to determine a DNA value expressed as cpm/mg.

aggrecan mRNA = assay: Aggrecan mRNA amount in cartilage cells by addition of artificial collagen aqueous solution (real-time PCR); assay type: cell-based, New Zealand white rabbits; conditions: relative to 0% defined as 1
Experimental: as §1, §2, §3, §4, §5, §6

With “Poly(Tripeptide-6) [artificial collagen aqueous solution]” the “modified ICRS score vs control group” value (cartilage defect model; 0.1% (W/V), intraarticular 0.1 ml/kg on Week 1, 3, 5, Week 7, Mann-Whitney U test) was “significant difference”, the “macroscopic observation of knee joints” value (cartilage defect model; 0.1% (W/V), intraarticular 0.1 ml/kg on Week 1, 3, 5) was “many knee joints have smooth surfaces” and the “Safranin-0-stained area ratio compared to control group” value (cartilage defect model; 0.1% (W/V), Week 7) was “larger”. The “Safranin-0 stained area compared to control group” value (cartilage defect model; 0.1% (W/V), Week 7) was “larger”, the “type 2 collagen antibody-immunostained area compared to control group” value (cartilage defect model; 0.1% (W/V), Week 7) was “larger” and the “type 2 collagen antibody-immunostained area ratio compared to control group” value (cartilage defect model; 0.1% (W/V), Week 7) was “larger”. The “macroscopic observation of knee joints” value (cartilage defect model; 0.5% (W/V), intraarticular 0.1 ml/kg on Week 1, 3, 5) was “many sparse fissures”, the “Safranin-0-stained area ratio compared to control group” value (cartilage defect model; 0.5% (W/V), Week 7) was “larger” and the “Safranin-0 stained area compared to control group” value (cartilage defect model; 0.5% (W/V), Week 7) was “larger”. For the same substance, the “type 2 collagen antibody-immunostained area compared to control group” value (cartilage defect model; 0.5% (W/V), Week 7) was “larger”, the “type 2 collagen antibody-immunostained area ratio compared to control group” value (cartilage defect model; 0.5% (W/V), Week 7) was “larger” and the “type 2 collagen mRNA expression” value (type 2 collagen mRNA; Day 4, 0.10% (W/V)) was “significantly enhanced”. The “type 2 collagen mRNA expression” value (type 2 collagen mRNA; Day 7, 0.40% (W/V)) was “lowered”, the “type 2 collagen mRNA expression” value (type 2 collagen mRNA; Day 7, 0.50% (W/V)) was “lowered” and the “type 2 collagen mRNA expression” value (type 2 collagen mRNA; Day 21, 0.40% (W/V)) was “lowered”. For the same substance, the “type 2 collagen mRNA expression” value (type 2 collagen mRNA; Day 21, 0.50% (W/V)) was “lowered”, the proteoglycan production (cartilage cells; 0.10% (W/V)) was “significantly enhanced” and the proteoglycan production (cartilage cells; 0.20% (W/V)) was “significantly enhanced”. The proteoglycan production (cartilage cells; 0.30% (W/V)) was “significantly enhanced”, the proteoglycan production (cartilage cells; 0.40% (W/V)) was “significantly enhanced” and the proteoglycan production (cartilage cells; 0.50% (W/V)) was “significantly enhanced”. For the same substance, the “aggrecan mRNA amount” value (aggrecan mRNA; Day 4, the respective concentrations (0.10 to 0.50% (W/V))) was “no significant change”, the “aggrecan mRNA amount” value (aggrecan mRNA; Day 7, the respective concentrations (0.10 to 0.50% (W/V))) was “no significant change” and the “aggrecan mRNA amount” value (aggrecan mRNA; Day 21, 0.20% (W/V)) was “significantly lowered”. For the same substance, the “aggrecan mRNA amount” value (aggrecan mRNA; Day 21, 0.30% (W/V)) was “significantly lowered”, the “aggrecan mRNA amount” value (aggrecan mRNA; Day 21, 0.40% (W/V)) was “significantly lowered” and the “aggrecan mRNA amount” value (aggrecan mRNA; Day 21, 0.50% (W/V)) was “significantly lowered”.
